{"source": "paper PMC4436800", "about": "(Frontiers in Neuroscience, 2015)"}
{"biological_target": "T1, Rhopr5HTR2b (R. prolixus serotonin type 2b receptor) (Rhodnius prolixus, UniProt A0A0H4TRR1)", "T1 construct": "gene 5HT-R2; complete open reading frame (Genbank KP325472) in pcDNA3.1, transiently expressed in CHOK1-aeq cells", "T1 sequence (A0A0H4TRR1 1-703)": "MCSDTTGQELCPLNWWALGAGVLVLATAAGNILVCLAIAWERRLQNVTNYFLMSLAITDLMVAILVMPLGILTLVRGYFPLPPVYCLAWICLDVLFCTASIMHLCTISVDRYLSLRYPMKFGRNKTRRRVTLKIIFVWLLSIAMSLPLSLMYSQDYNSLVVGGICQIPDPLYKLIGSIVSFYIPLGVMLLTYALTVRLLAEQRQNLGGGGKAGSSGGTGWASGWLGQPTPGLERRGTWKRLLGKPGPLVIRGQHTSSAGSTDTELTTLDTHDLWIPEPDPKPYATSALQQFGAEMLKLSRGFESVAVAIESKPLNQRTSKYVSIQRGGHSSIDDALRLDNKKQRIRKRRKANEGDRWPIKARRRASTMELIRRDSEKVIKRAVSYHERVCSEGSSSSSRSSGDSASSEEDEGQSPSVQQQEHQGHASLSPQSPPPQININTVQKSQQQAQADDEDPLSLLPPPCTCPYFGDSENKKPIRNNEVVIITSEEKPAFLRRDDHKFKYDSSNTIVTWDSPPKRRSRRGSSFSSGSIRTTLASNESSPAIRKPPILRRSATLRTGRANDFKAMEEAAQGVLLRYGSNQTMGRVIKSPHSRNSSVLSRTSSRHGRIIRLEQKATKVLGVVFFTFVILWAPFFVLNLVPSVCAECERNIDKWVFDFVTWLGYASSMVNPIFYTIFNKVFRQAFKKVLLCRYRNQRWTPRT", "experiment": "aequorin calcium luminescence assay, agonist dose-response in transfected CHOK1-aeq cells", "type": "cell-based", "units": {"EC50": "µM"}}
{"smiles": "CC(N)Cc1c[nH]c2ccc(O)cc12", "note": "(stereo not drawn) [alpha-methyl serotonin]", "EC50": 3.2}
{"biological_target": "T1, Rhopr5HTR2b (R. prolixus serotonin type 2b receptor)", "experiment": "aequorin luminescence, inhibition of […] serotonin response by […] antagonist", "type": "cell-based"}
{"smiles": "CN1CCN2c3ccccc3Cc3ccccc3C2C1", "note": "(stereo not drawn) [mianserin]", "% inhibition at 10 μM (range for all five antagonists)": "~ 70–50 % inhibition at 10 μM (range for all five antagonists)"}
{"smiles": "O=C(c1ccc(F)cc1)C1CCN(CCn2c(=O)[nH]c3ccccc3c2=O)CC1", "note": "[ketanserin]", "% inhibition at 10 μM (range for all five antagonists)": "~ 70–50 % inhibition at 10 μM (range for all five antagonists)"}
{"smiles": "O=C(CCCN1CCC2(CC1)C(=O)NCN2c1ccccc1)c1ccc(F)cc1", "note": "[spiperone]", "% inhibition at 10 μM (range for all five antagonists)": "~ 70–50 % inhibition at 10 μM (range for all five antagonists)"}
{"smiles": "CN1CCC(=C2c3ccccc3C=Cc3ccccc32)CC1", "note": "[cyproheptadine]", "% inhibition at 10 μM (range for all five antagonists)": "~ 70–50 % inhibition at 10 μM (range for all five antagonists)"}
{"smiles": "CC(C)NCC(O)COc1cccc2ccccc12", "note": "(stereo not drawn) [propranolol]", "% inhibition at 10 μM (range for all five antagonists)": "~ 70–50 % inhibition at 10 μM (range for all five antagonists)"}
